Assay results as given in US20230106592A1, “METHOD FOR TREATING CANCER USING A COMBINATION OF DNA DAMAGING AGENTS AND ATR INHIBITORS” (Vertex Pharmaceuticals Incorporated, priority 2015, published 2023).
“Also recorded” adds a separate entry of the source. Where two headings read alike, the source gives them in different places.

Assays:
[1] = Phase I trial, monotherapy and carboplatin combination: pharmacokinetics; format: in vivo, human; conditions: for half-life: human, plasma
Text: Pts with advanced solid tumors enrolled in 2 sequential parts.

[2] = Phase I trial, combination with gemcitabine and cisplatin: DLTs; format: in vivo, human

Compound: CNCc1ccc(-c2cc(-c3nc(-c4ccc(S(=O)(=O)C(C)C)cc4)cnc3N)on2)cc1 [Compound A-2]
- Drug interaction with carboplatin ([1]; Compound A-2 exposure alone versus combined with CP): no apparent drug interactions; also recorded: no interaction
- Accumulation ([1]; IV, patients): no accumulation
- AUC and Cmax versus dose ([1]; all DLs): linear
- Pharmacokinetics (PK) versus dose ([1]; as a monotherapy and in combination with CP): dose proportional
- half-life ([1]; intravenous, monotherapy and combination with carboplatin, read-out: Terminal elimination half-life (t1/2) (converted)): ~16 h
- half-life ([1]; IV, patients, read-out: Median half-life (converted)): 16 h
- Exposure (AUCinf and Cmax) versus dose ([1]; monotherapy and combination with carboplatin): increased proportionally
- No. of Patients with DLTs ([2]; Cohort 11: Compound A-2 90 + Gemcitabine 875 + Cisplatin 60 mg/m^2, 6/6, thrombocytopenia/neutropenia): 1 (thrombocytopenia/
- No. of Patients with DLTs ([2]; Cohort 12: Compound A-2 120 + Gemcitabine 875 + Cisplatin 60 mg/m^2, 2/2, febrile neutropenia/thrombocytopenia, hypoxia/neutropenia): 2 (febrile neutropenia/
